# According to US10758534B2 (Vertex Pharmaceuticals Incorporated, priority 2014, dated 2020):
# Target: T1, F508del (Homo sapiens, UniProt P13569, DEL508-508)
# T1 construct: expressed in transfected cells
# Test: Protocol 1: membrane potential optical assay (FLIPR III, voltage sensing dye), identification of potentiator compounds
# Format: cell-based
# Settings: Table 3, compounds of Table 1
# Summary of the method: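 NIH 3T3 fibroblasts stably expressing F508del were cultured at 27° C for 24 hrs for temperature correction, then treated with compounds or DMSO and loaded with a voltage-sensing redistribution dye. Forskolin added with a Cl⁻ gradient activated the channel; membrane-potential fluorescence on FLIPR III reported increased gating.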
# T1 sequence (P13569 with tags, fused parts or gaps DEL508-508): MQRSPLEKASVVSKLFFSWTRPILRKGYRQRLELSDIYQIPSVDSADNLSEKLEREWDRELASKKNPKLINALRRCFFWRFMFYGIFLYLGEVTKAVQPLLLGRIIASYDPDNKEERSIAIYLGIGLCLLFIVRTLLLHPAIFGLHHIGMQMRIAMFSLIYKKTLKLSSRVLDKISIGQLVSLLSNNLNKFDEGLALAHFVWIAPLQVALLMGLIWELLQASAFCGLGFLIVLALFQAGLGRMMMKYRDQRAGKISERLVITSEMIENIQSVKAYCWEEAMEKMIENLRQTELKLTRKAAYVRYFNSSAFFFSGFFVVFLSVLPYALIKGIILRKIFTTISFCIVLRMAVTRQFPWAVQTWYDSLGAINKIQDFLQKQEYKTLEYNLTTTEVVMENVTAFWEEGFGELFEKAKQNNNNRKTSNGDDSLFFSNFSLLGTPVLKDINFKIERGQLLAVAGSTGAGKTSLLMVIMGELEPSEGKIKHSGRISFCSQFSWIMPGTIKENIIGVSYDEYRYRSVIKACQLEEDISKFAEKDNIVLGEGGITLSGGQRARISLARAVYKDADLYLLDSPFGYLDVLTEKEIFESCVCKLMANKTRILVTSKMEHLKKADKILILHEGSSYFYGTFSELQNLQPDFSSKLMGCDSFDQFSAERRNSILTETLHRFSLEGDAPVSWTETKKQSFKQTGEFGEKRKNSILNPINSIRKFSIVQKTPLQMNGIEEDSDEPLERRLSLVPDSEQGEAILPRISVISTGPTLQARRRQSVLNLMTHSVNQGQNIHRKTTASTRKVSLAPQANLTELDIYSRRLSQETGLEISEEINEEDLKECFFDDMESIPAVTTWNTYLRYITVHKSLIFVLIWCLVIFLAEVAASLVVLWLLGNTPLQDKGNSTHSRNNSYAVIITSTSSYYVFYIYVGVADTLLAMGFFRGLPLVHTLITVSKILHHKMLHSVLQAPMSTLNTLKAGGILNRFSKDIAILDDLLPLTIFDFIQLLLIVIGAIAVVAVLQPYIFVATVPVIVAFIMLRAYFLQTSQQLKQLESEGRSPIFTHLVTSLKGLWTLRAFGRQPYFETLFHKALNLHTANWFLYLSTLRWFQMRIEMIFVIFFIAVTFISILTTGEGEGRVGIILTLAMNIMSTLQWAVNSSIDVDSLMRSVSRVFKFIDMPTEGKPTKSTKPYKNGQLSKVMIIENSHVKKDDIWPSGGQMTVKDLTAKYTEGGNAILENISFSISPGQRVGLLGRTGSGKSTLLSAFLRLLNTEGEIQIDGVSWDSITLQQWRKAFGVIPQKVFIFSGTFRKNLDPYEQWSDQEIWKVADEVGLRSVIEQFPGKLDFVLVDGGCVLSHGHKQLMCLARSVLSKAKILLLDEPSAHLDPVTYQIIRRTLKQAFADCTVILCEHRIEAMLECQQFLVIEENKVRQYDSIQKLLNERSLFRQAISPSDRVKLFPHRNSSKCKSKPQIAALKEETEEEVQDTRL
row,SMILES,EC30
1,"CC1CN(c2nc(-c3cccc(OCC(C)(C)C)n3)ccc2C(=O)NS(=O)(=O)c2cccc(N)n2)C(C)(C)C1 (stereo not shown) [Compound 1062, N-[(6-amino-2-pyridyl)sulfonyl]-6-[6-(2,2-dimethylpropoxy)-2-pyridyl]-2-(2,2,4-trimethylpyrrolidin-1-yl)pyridine-3-carboxamide]",+++ (“+++” means <3 uM)
2,"Cc1cccc(C)c1Cn1nc(C(C)(C)C)cc1C(=O)NS(=O)(=O)c1cccc2cc[nH]c12 [Compound 1358, 5-tert-butyl-2-[(2,6-dimethylphenyl)methyl]-N-(1H-indol-7-ylsulfonyl)pyrazole-3-carboxamide]",+++ (“+++” means <3 uM)
3,"CC1CN(c2ncc(-c3ccccc3C(F)(F)F)cc2C(=O)NS(=O)(=O)c2cccc(N)n2)C(C)(C)C1 (stereo not shown) [Compound 1921, N-[(6-amino-2-pyridyl)sulfonyl]-5-[2-(trifluoromethyl)phenyl]-2-(2,2,4-trimethylpyrrolidin-1-yl)pyridine-3-carboxamide]",+++ (“+++” means <3 uM)
4,"Cc1cc(N)nc(S(=O)(=O)NC(=O)c2ccc(-c3cc(F)cc(OCC(C)C)c3)nc2N2C[C@@H](C)CC2(C)C)c1 [Compound 1472, N-[(6-amino-4-methyl-2-pyridyl)sulfonyl]-6-(3-fluoro-5-isobutoxy-phenyl)-2-[(4S)-2,2,4-trimethylpyrrolidin-1-yl]pyridine-3-carboxamide]",+++ (“+++” means <3 uM)
5,CC(C)COc1cc(F)cc(-c2ccc(C(=O)NS(=O)(=O)c3cccc(N)n3)c(N3CC[C@H](C)[C@H](C)C3)n2)c1 [Compound 1724],+++ (“+++” means <3 uM)
6,"Cc1cc(C)c(Oc2nc(C3=CCC4(CC3)OCCO4)ccc2C(=O)NS(=O)(=O)c2cccc(N)n2)c(C)c1 [Compound 1558, N-[(6-amino-2-pyridyl)sulfonyl]-6-(1,4-dioxaspiro[4.5]dec-8-en-8-yl)-2-(2,4,6-trimethylphenoxy)pyridine-3-carboxamide]",++ (“++” means between 3 uM and 10 uM)
7,"COc1ccc(C(=O)NS(=O)(=O)c2cccc(N)n2)c(Oc2c(C)cc(C)cc2C)n1 [Compound 806, N-[(6-amino-2-pyridyl)sulfonyl]-6-methoxy-2-(2,4,6-trimethylphenoxy)pyridine-3-carboxamide]",++ (“++” means between 3 uM and 10 uM)
8,"CC(C)COc1ccc(F)c(-c2ccc(C(=O)NS(=O)(=O)c3cccc(N)n3)c(N3[C@H](C)CC[C@@H]3C)n2)c1 [Compound 807, N-[(6-amino-2-pyridyl)sulfonyl]-2-[(2S,5R)-2,5-dimethylpyrrolidin-1-yl]-6-(2-fluoro-5-isobutoxy-phenyl)pyridine-3-carboxamide]",+++ (“+++” means <3 uM)
9,"C[C@@H]1CN(c2nc(C(C)(C)C)ccc2C(=O)NS(=O)(=O)c2ccc[nH]c2=O)C(C)(C)C1 [Compound 1765, 6-tert-butyl-N-[(2-oxo-1H-pyridin-3-yl)sulfonyl]-2-[(4S)-2,2,4-trimethylpyrrolidin-1-yl]pyridine-3-carboxamide]",+++ (“+++” means <3 uM)
10,"CC1CN(c2ncccc2C(=O)NS(=O)(=O)c2cccc(N3CCC(c4ccccc4)C3)n2)C(C)(C)C1 (stereo not shown) [Compound 1708, N—[[6-(3-phenylpyrrolidin-1-yl)-2-pyridyl]sulfonyl]-2-(2,2,4-trimethylpyrrolidin-1-yl)pyridine-3-carboxamide]",+++ (“+++” means <3 uM)
11,"CC(C)COc1cc(F)cc(-c2ccc(C(=O)NS(=O)(=O)c3ccn[nH]3)c(N3CCC(C)C(C)(C)C3)n2)c1 (stereo not shown) [Compound 1174, 6-(3-fluoro-5-isobutoxy-phenyl)-N-(1H-pyrazol-5-ylsulfonyl)-2-(3,3,4-trimethyl-1-piperidyl)pyridine-3-carboxamide]",+++ (“+++” means <3 uM)
12,"C[C@@H]1CN(c2nc(C3=CCCN(C(=O)OC(C)(C)C)C3)ccc2C(=O)NS(=O)(=O)c2cccc(N)n2)C(C)(C)C1 [Compound 1371, tert-butyl 5-[5-[(6-amino-2-pyridyl)sulfonylcarbamoyl]-6-[(4S)-2,2,4-trimethylpyrrolidin-1-yl]-2-pyridyl]-3,6-dihydro-2H-pyridine-1-carboxylate]",+++ (“+++” means <3 uM)
13,"CC(C)COc1cc(F)cc(-c2ccc(C(=O)NS(=O)(=O)c3cccc(N)n3)c(OCCc3cccnc3)n2)c1 [Compound 1654, N-[(6-amino-2-pyridyl)sulfonyl]-6-(3-fluoro-5-isobutoxy-phenyl)-2-[2-(3-pyridyl)ethoxy]pyridine-3-carboxamide]",+++ (“+++” means <3 uM)
14,"Cc1cc(OC(C)C)cc(-c2cnc(N3CC(C)CC3(C)C)c(C(=O)NS(=O)(=O)c3cccc(N)n3)c2)c1 (stereo not shown) [Compound 1889, N-[(6-amino-2-pyridyl)sulfonyl]-5-(3-isopropoxy-5-methyl-phenyl)-2-(2,2,4-trimethylpyrrolidin-1-yl)pyridine-3-carboxamide]",+++ (“+++” means <3 uM)
15,"CC(C)COc1cc(F)cc(-c2ccc(C(=O)NS(=O)(=O)c3cccc(N)n3)c(N(C)CC3(C)CC3)n2)c1 [Compound 1009, N-[(6-amino-2-pyridyl)sulfonyl]-6-(3-fluoro-5-isobutoxy-phenyl)-2-[methyl-[(1-methylcyclopropyl)methyl]amino]pyridine-3-carboxamide]",+++ (“+++” means <3 uM)
16,"CC(C)CN(C)c1ccc(-c2ccc(C(=O)NS(=O)(=O)c3cccc(N)n3)c(N3[C@H](C)CC[C@@H]3C)n2)cn1 [Compound 1506, N-[(6-amino-2-pyridyl)sulfonyl]-2-[(2S,5R)-2,5-dimethylpyrrolidin-1-yl]-6-[6-[isobutyl(methyl)amino]-3-pyridyl]pyridine-3-carboxamide]",+++ (“+++” means <3 uM)
17,"CC(C)(C)c1ccc(C(=O)NS(=O)(=O)c2cccc(N)n2)c(C2CCCC2)n1 [Compound 1219, N-[(6-amino-2-pyridyl)sulfonyl]-6-tert-butyl-2-cyclopentyl-pyridine-3-carboxamide]",++ (“++” means between 3 uM and 10 uM)
18,"CC(C)COc1cc(F)cc(-c2ccc(C(=O)NS(=O)(=O)N3CCCC(N(C)C)C3)c(N3CC(C)CC3(C)C)n2)c1 (stereo not shown) [Compound 1414, N—[[3-(dimethylamino)-1-piperidyl]sulfonyl]-6-(3-fluoro-5-isobutoxy-phenyl)-2-(2,2,4-trimethylpyrrolidin-1-yl)pyridine-3-carboxamide]",+++ (“+++” means <3 uM)
19,"COc1ccc(-c2ccc(C(=O)NS(=O)(=O)c3cccnc3N)c(N3C[C@@H](C)CC3(C)C)n2)c(OC)c1 [Compound 1705, N-[(2-amino-3-pyridyl)sulfonyl]-6-(2,4-dimethoxyphenyl)-2-[(4S)-2,2,4-trimethylpyrrolidin-1-yl]pyridine-3-carboxamide]",+++ (“+++” means <3 uM)
20,"C[C@@H]1CN(c2nc(-c3ccc4[nH]ccc4c3)ccc2C(=O)NS(=O)(=O)c2ccc[nH]c2=O)C(C)(C)C1 [Compound 1982, 6-(1H-indol-5-yl)-N-[(2-oxo-1H-pyridin-3-yl)sulfonyl]-2-[(4S)-2,2,4-trimethylpyrrolidin-1-yl]pyridine-3-carboxamide]",++ (“++” means between 3 uM and 10 uM)
21,"Cc1ccc(-c2nc(-c3cc(F)cc(OC(C)C)c3)ccc2C(=O)NS(=O)(=O)c2nccnc2N)cc1 [Compound 1351, N-(3-aminopyrazin-2-yl)sulfonyl-6-(3-fluoro-5-isopropoxy-phenyl)-2-(p-tolyl)pyridine-3-carboxamide]",++ (“++” means between 3 uM and 10 uM)
22,"Cc1cccc(C)c1Oc1nc(-c2cc(F)cc(OCC(C)CO)c2)ccc1C(=O)NS(=O)(=O)c1cccc(N)n1 (stereo not shown) [Compound 1797, N-[(6-amino-2-pyridyl)sulfonyl]-2-(2,6-dimethylphenoxy)-6-[3-fluoro-5-(3-hydroxy-2-methyl-propoxy)phenyl]pyridine-3-carboxamide]",+++ (“+++” means <3 uM)
23,"CC(C)Oc1ccc(-c2ccc(C(=O)NS(=O)(=O)c3cccnc3N)c(N3C[C@@H](C)CC3(C)C)n2)cc1 [Compound 1903, N-[(2-amino-3-pyridyl)sulfonyl]-6-(4-isopropoxyphenyl)-2-[(4S)-2,2,4-trimethylpyrrolidin-1-yl]pyridine-3-carboxamide]",+++ (“+++” means <3 uM)
24,"CC[C@H](C)Oc1ncc(-c2ccc(C(=O)NS(=O)(=O)c3cccc(N)n3)c(N3C[C@@H](C)CC3(C)C)n2)cc1C [Compound 1728, N-[(6-amino-2-pyridyl)sulfonyl]-6-[5-methyl-6-[(1 S)-1-methylpropoxy]-3-pyridyl]-2-[(4S)-2,2,4-trimethylpyrrolidin-1-yl]pyridine-3-carboxamide]",+++ (“+++” means <3 uM)
25,"CC(C)COc1ccc(-c2ccc(C(=O)NS(=O)(=O)c3cccc(N)n3)c(N3CCC(C)CC3)n2)cc1 [Compound 1094, N-[(6-amino-2-pyridyl)sulfonyl]-6-(4-isobutoxyphenyl)-2-(4-methyl-1-piperidyl)pyridine-3-carboxamide]",+++ (“+++” means <3 uM)
26,"CCOc1cc(F)cc(-c2ccc(C(=O)NS(=O)(=O)c3ccc[nH]c3=O)c(Oc3c(C)cc(C)cc3C)n2)c1 [Compound 835, 6-(3-ethoxy-5-fluoro-phenyl)-N-[(2-oxo-1H-pyridin-3-yl)sulfonyl]-2-(2,4,6-trimethylphenoxy)pyridine-3-carboxamide]",++ (“++” means between 3 uM and 10 uM)
27,"Cc1cc(C)c(Oc2nc(-c3ccnn3C(C)C)ccc2C(=O)NS(=O)(=O)c2cccc(N)n2)c(C)c1 [Compound 1317, N-[(6-amino-2-pyridyl)sulfonyl]-6-(2-isopropylpyrazol-3-yl)-2-(2,4,6-trimethylphenoxy)pyridine-3-carboxamide]",+++ (“+++” means <3 uM)
28,"Cc1cc(-c2ccc(C(=O)NS(=O)(=O)c3cccc(N)n3)c(N3C[C@@H](C)CC3(C)C)n2)cnc1OCCOCCOCCOC(C)C [Compound 1787, N-[(6-amino-2-pyridyl)sulfonyl]-6-[6-[2-[2-(2-isopropoxyethoxy)ethoxy]ethoxy]-5-methyl-3-pyridyl]-2-[(4S)-2,2,4-trimethylpyrrolidin-1-yl]pyridine-3-carboxamide]",++ (“++” means between 3 uM and 10 uM)
